Legend:
Panc1 cells = assay: apoptosis by PI FACS analysis, Panc1; format: cell-based, human; details: combination treatment with Salinosporamide A, increased from 4%
Text: Novel diterpene inhibitors of NFκB derived from acanthoic acid (NPI-1342 (Formula IIB-a1) and NPI-1387; compound 24 under scheme 4 above) show measurable effects in human pancreatic cancer cell lines in vitro. Seven of the nine cell lines were moderately sensitive to apoptosis induced by death receptor ligand Tumor Necrosis Factor (TNF) related apoptosis-inducing ligand (TRAIL). […] Specific silencing of NFkB/p65 expression mimicked these effects. Furthermore, combination treatment of Salinosporamide A and either NPI-1342 or NPI-1387 led to induction of apoptosis as measured by PI FACS analysis. Specifically, levels of DNA fragmentation increased from 4% to 50% in HS766T cells and from 4% to 52% in Panc1 cells. The inhibitory effects of NPI-1342, NPI-1387 on NFκB were evaluated by Electromobility Shift Assays and confirmed by confocal microscopy.

[1] = 48 hr cytotoxicity, B16-F10 melanoma; format: cell-based, murine; details: mouse, B16-F10 melanoma cells, 10% FBS, individual values
Procedure: (§1) B16-F10 (ATCC; CRL-6475), DU 145 (ATCC; HTB-81), HEK293 (ATCC; CRL-1573), HT-29 (ATCC; HTB-38), LoVo (ATCC; CCL-229), MDA-MB-231 (ATCC; HTB-26), MIA PaCa-2 (ATCC; CRL-1420), NCI-H292 (ATCC; CRL-1848), OVCAR-3 (ATCC, HTB-161), PANC-1 (ATCC; CRL-1469), PC-3 (ATCC; CRL-1435), RPMI 8226 (ATCC; CCL-155) and U266 (ATCC; TIB-196) are maintained in appropriate culture media. The cells are cultured in an incubator at 37° C. in 5% CO2 and 95% humidified air.
(§2) For cell growth inhibition assays, B16-F10, DU 145, HEK293, HT-29, LoVo, MDA-MB-231, MIA PaCa-2, NCI-H292, OVCAR-3, PANC-1, PC-3, RPMI 8226 and U266 cells are seeded at 1.25×10^3, 5×10^3, 1.5×10^4, 5×10^3, 5×10^3, 1×10^4, 2×10^3, 4×10^3, 1×10^4, 7.5×10^3, 5×10^3, 2×10^4, 2.5×10^4 cells/well respectively in 90 μl complete media into Corning 3904 black-walled, clear-bottom tissue culture plates. 20 mM stock solutions of compounds of Formula II, IIA, and IIB are prepared in 100% DMSO, aliquoted and stored at −80° C. Compounds of Formula II, IIA, and IIB are serially diluted and added in triplicate to the test wells resulting in final concentrations ranging from of 20 μM to 0.2 pM. The plates are returned to the incubator for 48 hours. The final concentration of DMSO is 0.25% in all samples.
(§3) Following 48 hours of drug exposure, 10 μl of 0.2 mg/ml resazurin (obtained from Sigma-Aldrich Chemical Co.) in Mg^2+, Ca^2+ free phosphate buffered saline is added to each well and the plates are returned to the incubator for 3-6 hours. Since living cells metabolize Resazurin, the fluorescence of the reduction product of Resazurin is measured using a Fusion microplate fluorometer (Packard Bioscience) with λex=535 nm and λem=590 nm filters. Resazurin dye in medium without cells was used to determine the background, which is subtracted from the data for all experimental wells.

B16-F10 melanoma cells = assay: 48 hr cytotoxicity, B16-F10 melanoma; format: cell-based, murine; details: 10% FBS, individual values
Procedure: as §1, §2, §3

IL-8 production = assay: LPS-stimulated IL-8 levels in RPMI 8226 cells (ELISA); format: cell-based, human; details: 20 μM to 0.16 μM
Procedure: Ninety μl of 2.8×10^5/ml and 0.5 ml of 5×10^5/ml RMPI 8226 cells (#CCL-155C, American Type Culture Collection) were seeded in 96-well and 6-well plate in LGM-3 medium, respectively. Cells were cultured overnight at 37° C., 5% CO2 and 95% humidified air. 8-point serial dilution of TTL3 or formula (IIB-A1) was added to cells for 1 hr at the final concentration ranging from 20 μM to 0.16 μM. DMSO was used as control. After 1 hr, 50 ng/ml of LPS diluted in LGM-3 medium from 1 mg/ml stock solution was added to stimulate the cells for additional 10 hr. Supernatants were collected and IL-8 and IL-10 levels were analyzed by using the human IL-8 and IL-10 cytoset ELISA kits.

IκBα phosphorylation = assay: phosphorylation level of IκBα in LPS-stimulated HPBMC (western blot); format: cell-based, Human; details: 13 μM, 20 ng/ml LPS, compared with DMSO control
Procedure: One ml/well of 3×10^6/ml HPBMC were seeded in 6-well plate in LGM-3 medium and cultured for 12 hr at 37° C., 5% CO2 and 95% humidified air. Final concentration of 13 μM for formula (IIB-A1) (or 10 μM for TTL3) was added to HPBMC for 1 hr. DMSO was used as a control. Cells were then stimulated with 20 ng/ml LPS diluted in LGM-3 medium from 1 mg/ml stock solution for 30 min, 1 hr, 2 hr and 4 hr. At the end of each time point, cells were harvested by centrifugation and cell pellets were washed once in ice-cold 1× Dulbecco's Phosphate buffered Saline (DPBS). To prepare samples for SDS Polyacrylamide Gel Electrophoresis (SDS-PAGE), cells were lysed in RIPA buffer (50 mM Tris-HCl, pH7.4, 0.9% NaCl, 1% Triton X-100, 0.25% Na-deoxycholate, 1 mM EDTA, 2 mM Na3VO4 and 1× protease inhibitors cocktail) for 15 min on ice. Cell lysates were cleared by centrifugation at 14,000 rpm, 4° C. for 10 min. Protein concentrations of cell lysates were determined by BCA protein assay kit prior to SDS-PAGE. Equal amount of proteins from various cell lysates were resolved on 10% NuPage MES precast gels and transferred to nitrocellulose membranes according to the manufacturer's instructions. […]

## C=CC(=O)C1(C)CCCC2(C)C3=CCC(C)(C=C)C[C@@H]3CC[C@H]12 (stereo in doubt) [NPI-1387, 1-[(1S,4aS,7R)-1,4a,7-Trimethyl-7-vinyl-1,2,3,4,4a,6,7,8,8a,9,10,10a-dodecahydro-1-phenanthrenyl]-2-propen-1-one]
Panc1 cells
  levels of DNA fragmentation: 52%
[1]
  cytotoxicity at 48 h: 94%
B16-F10 melanoma cells
  % cytotox: 92%
  IC50: 7.5 µM
B16-F10 melanoma cells; Mus musculus, B16-F10, 48 h
  IC50: 6.2 µM

## C=C[C@@]1(C)CCC=C2[C@H]1CC[C@@H]1[C@](C)(C(=O)NC3CCCCC3)CCC[C@@]21C [Formula (IIB-A1), N-Cyclohexylamide Derivative of TTL]
IL-8 production
  LPS-induced IL-8 production: reduces LPS-induced IL-8 and IL-10 production in a dose-dependent manner
IL-8 production; listed as formula (IIB-A1)
  LPS-induced IL-8 production: inhibits the LPS-induced IL-8 and IL-10 production
IκBα phosphorylation; listed as Formula (IIB-a1)
  level of IκBα phosphorylation in LPS-stimulated HPBMC: decrease
IκBα phosphorylation; listed as formula (IIB-A1)
  level of IκBα phosphorylation in LPS-stimulated HPBMC: effectively inhibited
